Experimental data reported in paper PMC10789823, “Synthesis, structural characterizations, in vitro biological evaluation and computational investigations of pyrazole derivatives as potential antidiabetic and antioxidant agents” (Scientific Reports, 2024).
“And” between values parts separate entries of the source, which are not always exact repeats. Identical values can stand only once. Like-named read-outs stand apart in the source and are kept apart here.

What was measured:
[1] = target: α-amylase from Bacillus licheniformis (Bacillus licheniformis, UniProt P06278); test: biochemical; conditions: mean ± standard deviation (n = 3)
Chain of α-amylase from Bacillus licheniformis (P06278 30-512): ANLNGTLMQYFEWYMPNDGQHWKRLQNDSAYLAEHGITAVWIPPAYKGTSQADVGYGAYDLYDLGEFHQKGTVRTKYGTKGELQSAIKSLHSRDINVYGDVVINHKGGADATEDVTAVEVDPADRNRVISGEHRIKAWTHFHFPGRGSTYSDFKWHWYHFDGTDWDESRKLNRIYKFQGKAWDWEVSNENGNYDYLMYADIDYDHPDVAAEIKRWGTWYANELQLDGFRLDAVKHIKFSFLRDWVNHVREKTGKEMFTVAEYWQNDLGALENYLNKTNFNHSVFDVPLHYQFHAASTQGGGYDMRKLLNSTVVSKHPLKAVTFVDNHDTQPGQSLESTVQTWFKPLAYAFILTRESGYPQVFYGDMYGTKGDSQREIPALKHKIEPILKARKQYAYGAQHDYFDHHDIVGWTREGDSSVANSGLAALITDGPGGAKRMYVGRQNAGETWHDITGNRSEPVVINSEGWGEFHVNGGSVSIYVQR
Experimental: (§1) The α-glucosidase and α-amylase inhibitory activities of compounds Pyz-1 and Pyz-2 were determined using the method described in our previous works[48],[49].
(§2) All other reagents and standards were of analytical reagent grade.
The α-amylase assay was performed by reacting various concentrations of compounds with α-amylase and starch solution by following the DNSA method with minor modifications (Hashim et al., 2013). The evaluated samples were dissolved in tampon phosphate with various concentrations. The sample solution (10μL) was mixed with 240μL (sodium phosphate buffer 0.02M pH6.9) containing α-amylase (240U/mL), and incubated at 37°C for 20 min. After pre-incubation, 250 µL of 1% starch solution were added to each tube and incubated for 15 min. 1ml of dinitrosalicylic acid was added to stop the reaction, then incubate the solution in a water bath at 90°C for 10 min. The mixture was diluted with 1 mL deionized water and the absorbance (Abs) was measured at 540 nm.
The IC50 values were determined by the percentage of inhibitions at different concentrations.

[2] = target: α-glucosidase from Saccharomyces cerevisiae (Saccharomyces cerevisiae, UniProt P53341); test: biochemical
Chain of α-glucosidase from Saccharomyces cerevisiae (P53341 whole entry): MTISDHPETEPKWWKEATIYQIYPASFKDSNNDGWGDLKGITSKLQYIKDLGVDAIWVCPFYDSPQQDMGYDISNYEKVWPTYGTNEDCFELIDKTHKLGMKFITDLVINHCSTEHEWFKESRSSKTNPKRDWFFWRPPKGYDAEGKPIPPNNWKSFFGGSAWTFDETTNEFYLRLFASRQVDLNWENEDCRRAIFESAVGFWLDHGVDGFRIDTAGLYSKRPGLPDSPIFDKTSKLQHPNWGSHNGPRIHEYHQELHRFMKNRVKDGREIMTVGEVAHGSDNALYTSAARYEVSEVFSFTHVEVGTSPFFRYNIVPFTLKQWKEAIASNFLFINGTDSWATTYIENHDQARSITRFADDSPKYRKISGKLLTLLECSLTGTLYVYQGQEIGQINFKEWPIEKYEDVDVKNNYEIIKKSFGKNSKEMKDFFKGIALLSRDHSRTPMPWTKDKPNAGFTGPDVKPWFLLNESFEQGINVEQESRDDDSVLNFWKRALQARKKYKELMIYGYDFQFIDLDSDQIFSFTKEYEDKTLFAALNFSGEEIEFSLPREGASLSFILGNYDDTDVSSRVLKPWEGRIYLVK
Experimental: as §1, §2
The α-glucosidase inhibitory activity was performed by using (ρ-nitrophenyl-α-D-glucopyranoside) as a substrate according to the method described by (Kee et al., 2013),with minor modifications. The α-glucosidase method is based on the inhibition of the enzyme. α-glucosidase, which hydrolyses (4-Nitrophenyl-α-d-glucopyranoside) to α-d-glucopyranose and P-nitrophenol of yellow color. The target compound was dissolved in DMSO and all the evaluated samples were dissolved in tampon phosphate at a series of concentrations. A mixture of 150 µl of the sample and 100 µl of PBS (pH = 6.7) containing the α- glucosidase enzyme solution (0.1U/ml) was incubated at 37 ° C for 10 min, after incubation, 200µl of pNPG (1 mM) was added to the mixture. The mixtures were incubated at 37 °C for 30 min. Then 1 ml Na2CO3 (0.1 M) was added to stop the reaction. The absorbance was measured at 405 nm. The results were expressed in percentage of inhibition according to the following formula: […]
The same reaction mixture without α-glucosidase was used as negative control.

[3] = DPPH radical scavenging activity assay; conditions: called SC50; mean ± standard deviation (n = 3)
Experimental: (§3) The antioxidant activities of the title compound were determined in vitro by DPPH, ABTS, FRAP and hydrogen peroxide activity (H2O2) methods according to the procedures described in our previous works.
The DPPH radical activity assay was performed following (Huang et al., 2011) with minor modification. The method using the stable free radical 2,2-diphenyl-1-picrylhydrazyl (DPPH) is based upon the reduction of DPPH free radical. Different concentrations of the prepared compounds (500, 250, 125, 62.5, 31.25 µM) were tested. The DPPH solution was prepared by dissolving 3,9mg of DPPH in 50 mL of the methanol. Then, 50µL of each concentration was added to 1,2ml of methanol and 250µL of the prepared DPPH solution […]. The reaction mixture incubated in the dark for 30 min. The control was prepared by adding 1,25 mL of methanol to 250 µL of DPPH. Ascorbic acid was used as the standard. The absorbances of solutions were spectrophotometrically examined at 517 nm. The radical activity is expressed as inhibition ratio of initial concentration of DPPH radical and is calculated according to the formula: […]
Where AbsDPPH is the absorbance of DPPH radical and Abssample is the absorbance in the presence of sample.

[4] = Ferric reducing power assay (FRAP); conditions: mean ± standard deviation (n = 3)
Experimental: as §3
The ferric ion (Fe^3+) reducing power assay was performed as previously described by (Amarowicz et al., 2004) with minor modifications. Briefly, 1 mL of the samples were mixed with 2.5 mL of 0.2 M sodium phosphate buffer (pH 6.6) and 2.5 mL of 1% potassium ferricyanide. The mixtures were incubated in a […] water bath at 50 °C for 20 min. Then, 2.5 mL of 10% trichloroacetic acid was added and centrifuged at 3000 rpm for 10 min. Finally, 2.5 mL of the supernatant were mixed with 2.5 mL distilled water and 0.5 mL FeCl3 solution (0.1%, w/v). The absorbance was measured at 700 nm and the results were expressed as IC50.

[5] = Hydrogen peroxide activity (H2O2); conditions: mean ± standard deviation (n = 3)
Experimental: as §3
The hydrogen-donating activity, measured utilizing hydrogen peroxide radicals as the hydrogen acceptor was performed as previously described by (Muruhan et al., 2013) with minor modifications. Briefly a solution of hydrogen peroxide (40 mM) was prepared in phosphate buffer (pH 7.4). Different concentrations of the prepared compounds (62.5, 31.25, 15.62, 7.81 and 3.9 μM) were added to a hydrogen peroxide solution (0.6 mL, 40 mM). The absorbance of hydrogen peroxide at 230 nm was determined after 10 min against a blank solution containing phosphate buffer without hydrogen peroxide (or ascorbic acid as the control). The hydrogen peroxide percentage activity was then calculated using the following equation: […]

xanthine oxidase = xanthine oxidase (Homo sapiens, UniProt P47989); test: Xanthine oxidase inhibition assay (XO); format: biochemical; conditions: mean ± standard deviation (n = 3)
Chain of xanthine oxidase (P47989 whole entry, species assumed): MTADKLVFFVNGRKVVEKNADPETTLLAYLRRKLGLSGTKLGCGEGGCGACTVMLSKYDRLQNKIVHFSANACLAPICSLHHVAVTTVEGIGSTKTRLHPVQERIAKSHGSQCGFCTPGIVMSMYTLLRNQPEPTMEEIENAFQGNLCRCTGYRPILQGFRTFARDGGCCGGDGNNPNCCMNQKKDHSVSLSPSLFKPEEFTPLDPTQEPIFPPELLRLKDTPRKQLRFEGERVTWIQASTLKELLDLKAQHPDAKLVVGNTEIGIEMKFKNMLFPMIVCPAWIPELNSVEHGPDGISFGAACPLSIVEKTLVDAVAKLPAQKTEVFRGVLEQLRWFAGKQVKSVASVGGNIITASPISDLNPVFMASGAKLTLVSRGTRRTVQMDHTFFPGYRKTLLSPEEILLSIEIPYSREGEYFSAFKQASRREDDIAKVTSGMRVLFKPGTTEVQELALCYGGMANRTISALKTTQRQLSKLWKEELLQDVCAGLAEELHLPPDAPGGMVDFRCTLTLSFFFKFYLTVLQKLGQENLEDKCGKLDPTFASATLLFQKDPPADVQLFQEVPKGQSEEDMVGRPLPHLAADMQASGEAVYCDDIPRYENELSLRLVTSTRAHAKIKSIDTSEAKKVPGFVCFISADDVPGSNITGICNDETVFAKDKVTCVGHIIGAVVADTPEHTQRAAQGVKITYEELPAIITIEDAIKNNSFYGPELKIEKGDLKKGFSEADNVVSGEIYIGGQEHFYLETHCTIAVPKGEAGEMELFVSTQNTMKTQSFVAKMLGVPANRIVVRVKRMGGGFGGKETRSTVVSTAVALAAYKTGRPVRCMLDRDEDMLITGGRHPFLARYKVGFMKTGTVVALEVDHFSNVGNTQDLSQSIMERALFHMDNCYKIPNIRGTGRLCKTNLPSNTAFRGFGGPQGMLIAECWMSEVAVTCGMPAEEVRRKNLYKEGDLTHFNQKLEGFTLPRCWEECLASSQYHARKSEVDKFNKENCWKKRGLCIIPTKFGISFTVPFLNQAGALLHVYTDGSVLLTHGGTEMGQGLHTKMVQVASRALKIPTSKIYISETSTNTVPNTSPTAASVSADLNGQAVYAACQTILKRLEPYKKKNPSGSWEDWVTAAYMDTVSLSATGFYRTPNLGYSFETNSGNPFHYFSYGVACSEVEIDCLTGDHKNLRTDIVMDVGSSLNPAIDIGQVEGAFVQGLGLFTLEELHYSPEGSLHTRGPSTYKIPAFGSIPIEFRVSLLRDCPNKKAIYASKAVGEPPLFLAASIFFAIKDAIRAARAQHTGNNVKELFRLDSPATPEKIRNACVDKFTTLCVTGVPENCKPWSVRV
Experimental: The xanthine oxidase inhibitory activity of Pyz-1 and Pyz-2 was performed following the method described by Kostić et al.[50], with minor modifications. The samples were prepared at series of concentrations. 1.95 ml of 5 mM phosphate buffer pH 7.5 and 50 µl of enzyme solution was added to the mixtures. After pre-incubation at 25 °C for 15 min. 1 ml of substrate was added.

ABTS assay = conditions: for IC50: called SC50, mean ± standard deviation (n = 3)
Experimental: as §3
The ABTS assay was performed as previously described by (Tuberoso et al., 2013). ABTS+ radical was generated by oxidation of ABTS with potassium persulfate. The blue-green ABTS was produced through the reaction between 2 mM ABTS and 70 mM potassium persulfate in water. The mixture was left to stand in the dark for 12–16 h before use. The ABTS+ solution as diluted with methanol to an absorbance of 0.700 ± 0.005 at 734 nm. Then 2 mL of diluted ABTS solution were mixed with 100 μL of samples and absorbance was measured after 1 min incubation at room temperature. A standard curve was obtained by using Ascorbic acid as standard solution.

[6] = mean ± standard deviation (n = 3), read-out: IC50 α-Glucosidase

| IC50 [1] | IC50 [2, 6] [µM] | IC50 [3] [µM] | IC50 [4] [µM] | IC50 [5] [µM] | IC50 (ABTS assay) [µM] | Compound | IC50 [2] [µM] | IC50 (xanthine oxidase) [µM] | ABTS scavenging activity relative to Pyz-1 (ABTS assay; ratio of SC50 values, versus Pyz-1) [fold] |
| --- | --- | --- | --- | --- | --- | --- | --- | --- | --- |
| > 500 µM | 279 ± 4.03 |  |  |  |  | Cc1cc(C(=O)NN)[nH]n1 [Compound 1, 5-methyl-1H-pyrazole-3-carbohydrazide] |  |  |  |
| 119 µM and 120 µM | 95.85 ± 0.92 | 139 ± 1.45 | 62.62 ± 0.49 | 24.8 ± 1.23 | 20.5 ± 0.87 | Cc1cc(-c2nnc(S)n2N)n[nH]1 [Pyz-2, 4-amino-5-(5-methyl-1H-pyrazol-3-yl)-4H-1,2,4-triazole-3-thiol] |  | 10.8 ± 0.54 | 3.88 |
|  |  | 78.11 ± 0.68 | 88.12 ± 0.23 | 7.45 ± 1.11 | 22.5 ± 0.59 | O=C1O[C@H]([C@@H](O)CO)C(O)=C1O [Ascorbic acid, reference compound] |  |  |  |

| Compound | IC50 [1] | IC50 [2, 6] [µM] | IC50 [3] [µM] | IC50 [4] [µM] | IC50 [5] [µM] | IC50 (ABTS assay) [µM] | IC50 [2] [µM] | IC50 (xanthine oxidase) [µM] | ABTS scavenging activity relative to Pyz-1 (ABTS assay; ratio of SC50 values, versus Pyz-1) [fold] |
| --- | --- | --- | --- | --- | --- | --- | --- | --- | --- |
| Cc1cc(C(=O)NNC(=O)Nc2ccccc2)n[nH]1 [Pyz-1, 2-(5-methyl-1H-pyrazole-3-carbonyl)-N-phenylhydrazine-1-carboxamide] | 120 µM and 119 µM |  | 238.5 ± 1.12 | 100.2 ± 0.79 | 31.5 ± 0.92 | 79.77 ± 0.45 | 75.62 ± 0.56 | 24.3 ± 0.78 |  |
